Measurements: PubChem BioAssay (NCI)
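1) Cells in 96-well plates. 2) Compound, 48 h, 5 concentrations. 3) Linear interpolation between surrounding doses. 4) Unreached endpoint = highest concentration. Abbreviation: GI50, concentration required for 50% inhibition of growth. At the TGI there is no net growth.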

How the values were obtained:
Assay in all cases: DTP human tumour cell line panel, 48 h
COLO 205 colon = tested on: COLO 205 colon
NCI-H23 lung = tested on: NCI-H23 lung
LOX IMVI melanoma = tested on: LOX IMVI melanoma
IGROV1 ovarian = tested on: IGROV1 ovarian
CAKI-1 renal = tested on: CAKI-1 renal
SW-620 colon = tested on: SW-620 colon

COc1ccc(C2CC(c3ccc4ccccc4c3)=NN2/C=C2\SC(=S)N(NC(=O)Cc3ccccc3Nc3c(Cl)cccc3Cl)C2=O)cc1 (stereo unspecified)
GI50 (COLO 205 colon): 1.89 µM
TGI (COLO 205 colon): > 100 µM
GI50 (NCI-H23 lung): 0.793 µM
TGI (NCI-H23 lung): > 46.8 µM
GI50 (LOX IMVI melanoma): 0.556 µM
TGI (LOX IMVI melanoma): > 54 µM
GI50 (IGROV1 ovarian): 0.588 µM
TGI (IGROV1 ovarian): > 42 µM
GI50 (CAKI-1 renal): 0.392 µM
TGI (CAKI-1 renal): > 40 µM
GI50 (SW-620 colon): 0.416 µM
TGI (SW-620 colon): > 52.7 µM

Cc1cc(C)nc(NS(=O)(=O)c2ccc(Nc3nc4nc(NCc5ccccc5)nc(-c5ccc(O)cc5)c4c(=O)[nH]3)cc2)n1
GI50 (COLO 205 colon): 81.8 µM
TGI (COLO 205 colon): > 100 µM
GI50 (NCI-H23 lung): 79.7 µM
TGI (NCI-H23 lung): > 100 µM
GI50 (LOX IMVI melanoma): 25.2 µM
TGI (LOX IMVI melanoma): > 100 µM
GI50 (IGROV1 ovarian): 0.663 µM
TGI (IGROV1 ovarian): 7.52 µM
GI50 (CAKI-1 renal): 57.2 µM
TGI (CAKI-1 renal): > 100 µM
GI50 (SW-620 colon): 26.7 µM
TGI (SW-620 colon): > 100 µM

COc1ccc(NC(=O)COc2ccccc2)c(C(N)=O)c1
GI50 (COLO 205 colon): 0.505 µM
TGI (COLO 205 colon): 6.56 µM
GI50 (NCI-H23 lung): 2.61 µM
TGI (NCI-H23 lung): 35.5 µM
GI50 (LOX IMVI melanoma): 3.14 µM
TGI (LOX IMVI melanoma): > 100 µM
GI50 (IGROV1 ovarian): 4.71 µM
TGI (IGROV1 ovarian): > 100 µM
GI50 (CAKI-1 renal): 1.09 µM
TGI (CAKI-1 renal): > 100 µM
GI50 (SW-620 colon): 0.511 µM
TGI (SW-620 colon): > 100 µM

CN(C)C(=O)C(NCCO)c1ccccc1 (stereo unspecified)
TGI (COLO 205 colon): > 100 µM
TGI (NCI-H23 lung): > 100 µM
TGI (LOX IMVI melanoma): > 100 µM
TGI (IGROV1 ovarian): > 100 µM
TGI (CAKI-1 renal): > 100 µM
TGI (SW-620 colon): > 100 µM

COc1ccc2c(c1)O/C(=C\c1ccc([N+](=O)[O-])o1)C2=O
GI50 (COLO 205 colon): 1.18 µM
TGI (COLO 205 colon): 3.12 µM
GI50 (NCI-H23 lung): 1.99 µM
TGI (NCI-H23 lung): 5.81 µM
GI50 (LOX IMVI melanoma): 1.14 µM
TGI (LOX IMVI melanoma): 2.96 µM
GI50 (IGROV1 ovarian): 1.35 µM
TGI (IGROV1 ovarian): 7.3 µM
GI50 (CAKI-1 renal): 0.452 µM
TGI (CAKI-1 renal): 2.12 µM
GI50 (SW-620 colon): 0.294 µM
TGI (SW-620 colon): 1.39 µM

NNC(=O)C(O)C(O)C(O)CO (stereo unspecified)
TGI (COLO 205 colon): > 100 µM
TGI (NCI-H23 lung): > 100 µM
TGI (LOX IMVI melanoma): > 100 µM
TGI (IGROV1 ovarian): > 100 µM
TGI (CAKI-1 renal): > 100 µM
TGI (SW-620 colon): > 100 µM

N=C(N)c1ccc(CS(=O)(=O)F)cc1
GI50 (COLO 205 colon): > 100 µM
TGI (COLO 205 colon): > 100 µM
GI50 (NCI-H23 lung): > 100 µM
TGI (NCI-H23 lung): > 100 µM
GI50 (LOX IMVI melanoma): 81.2 µM
TGI (LOX IMVI melanoma): > 100 µM
GI50 (IGROV1 ovarian): > 100 µM
TGI (IGROV1 ovarian): > 100 µM
GI50 (CAKI-1 renal): > 100 µM
TGI (CAKI-1 renal): > 100 µM
GI50 (SW-620 colon): > 100 µM
TGI (SW-620 colon): > 100 µM

Nc1nc(=O)c2[nH]cnc2n1O
TGI (COLO 205 colon): > 100 µM
TGI (NCI-H23 lung): > 100 µM
TGI (LOX IMVI melanoma): > 100 µM
TGI (IGROV1 ovarian): > 100 µM
TGI (SW-620 colon): > 100 µM

CN(C)c1ccc(/C=N/NC(=O)CSc2nc3sc4c(c3c(=O)n2-c2ccccc2)CCCCC4)cc1
GI50 (COLO 205 colon): 4.14 µM
TGI (COLO 205 colon): > 100 µM
GI50 (NCI-H23 lung): 3.79 µM
TGI (NCI-H23 lung): > 100 µM
GI50 (LOX IMVI melanoma): 3.05 µM
TGI (LOX IMVI melanoma): > 100 µM
GI50 (IGROV1 ovarian): 3.08 µM
TGI (IGROV1 ovarian): > 100 µM
GI50 (CAKI-1 renal): 5.07 µM
TGI (CAKI-1 renal): > 100 µM
GI50 (SW-620 colon): 3.56 µM
TGI (SW-620 colon): > 100 µM

C/C(=N\NC(=O)c1cccc(S(=O)(=O)N2CCN(C)CC2)c1)c1cc(Cl)ccc1O
GI50 (COLO 205 colon): 0.387 µM
TGI (COLO 205 colon): 15.3 µM
GI50 (NCI-H23 lung): 0.74 µM
TGI (NCI-H23 lung): 45 µM
GI50 (LOX IMVI melanoma): 0.518 µM
TGI (LOX IMVI melanoma): 13 µM
GI50 (IGROV1 ovarian): 0.677 µM
TGI (IGROV1 ovarian): > 66.5 µM
GI50 (CAKI-1 renal): 0.567 µM
TGI (CAKI-1 renal): 27.5 µM
GI50 (SW-620 colon): 0.705 µM
TGI (SW-620 colon): > 94.9 µM
